Values of other authors, collected in paper PMC6835763, “Influence of Short Cationic Lipopeptides with Fatty Acids of Different Chain Lengths on Bacterial Biofilms Formed on Polystyrene and Hydrogel Surfaces” (Pharmaceutics, 2019).

Legend:
Conditions in all cases: cited from earlier work
PM biofilm = system: PM biofilm
Description: (§1) They were ineffective against PM, which was difficult to eradicate with peptides (and antibiotics) in previously performed studies. PM can cause infections of the urinary tract, skin, subcutaneous tissue, and wounds. PM is known as a biofilm former, and an evident increase of PM resistance to broad-spectrum fluoroquinolones and cephalosporins has been observed. In the previous study, mature PM b ...

SA biofilms = system: SA biofilms; set-up: method as in PMID 24779193
PA biofilm = system: PA biofilm
Description: as §1

EC biofilm = system: EC biofilm
Description: as §1

Substance	susceptibility of mature PM biofilms (PM biofilm)	other results
C16-RR-NH2 [Lipopeptide C16-RR-NH2]	resistant	
citropin 1.1	resistant	
neomycin	resistant	susceptibility of SA biofilms (SA biofilms): resistant; activity against PA biofilm (PA biofilm): weak antibiofilm agents; activity against EC biofilms (EC biofilm): rather weak activity
omiganan	resistant	
pexiganan	resistant	
polymyxin B		concentration eradicating the PM biofilm (PM biofilm; mature PM biofilms): 512 µg/mL
